Experimental data as given in patent publication US8557746B2, “High throughput screens for small-molecule inhibitors of the nuclear receptor-like pathway regulating multidrug resistance in fungi” (The General Hospital Corporation, priority 2009, dated 2013).
pKd: −log10 of the molar value. Entries after “also recorded” stand apart in the source; their conditions may differ.

Legend:
S. cerevisiae gal11Δ = experiment: Drug sensitivity assay on agar, S. cerevisiae GAL11 deletion strain; assay type: cell-based; settings: growth on YPD agar with increasing drug concentration
Method: (§1) Fresh S. cerevisiae colonies were inoculated in 5 ml of YPD or SD selection medium, and grown overnight at 30° C. The cells were diluted to an OD600 of 0.2, and 2 μl were spotted on agar-based solid medium containing an increasing gradient of drugs (for example, ketoconazole, cycloheximide, or 4-NQO) in the agar. The plates were incubated at 30° C. for 2-3 days. Susceptibility of the C. glabrata mutants was tested by spotting serial dilutions of cells onto YPD agar plates supplemented with fluconazole or ketoconazole. The yeast strains were grown overnight at 30° C. in YPD liquid medium. Cells were diluted to an OD600 of 2.0 in PBS, and 4 μl of the cell suspension and tenfold serial dilutions of the cells were spotted onto plates. Growth was assessed after 1 day of incubation at 30° C.

C. glabrata Cggal11AΔ = experiment: Drug sensitivity growth assay, C. glabrata CgGAL11A deletion strain; assay type: cell-based; settings: growth assays on YPD plates
Method: as §1

Myc6-Pdr1p = biological target: T1, Myc6-Pdr1p (Saccharomyces cerevisiae, UniProt P12383); experiment: Drug-binding and cold competition assay with 3H-ketoconazole; set-up: species or system S. cerevisiae; settings: for competition of binding of radiolabelled ketoconazole to Pdr1p by unlabelled xenobiotic: unlabelled xenobiotic at 1,000-fold excess of KET
T1 construct: N-terminal Myc-tagged full-length wild-type Pdr1p (Myc6-Pdr1pwt); made in house; host or cells: yeast (S. cerevisiae), immunopurified with anti-Myc 9E10 on Protein A/G beads
T1 sequence (P12383 whole entry): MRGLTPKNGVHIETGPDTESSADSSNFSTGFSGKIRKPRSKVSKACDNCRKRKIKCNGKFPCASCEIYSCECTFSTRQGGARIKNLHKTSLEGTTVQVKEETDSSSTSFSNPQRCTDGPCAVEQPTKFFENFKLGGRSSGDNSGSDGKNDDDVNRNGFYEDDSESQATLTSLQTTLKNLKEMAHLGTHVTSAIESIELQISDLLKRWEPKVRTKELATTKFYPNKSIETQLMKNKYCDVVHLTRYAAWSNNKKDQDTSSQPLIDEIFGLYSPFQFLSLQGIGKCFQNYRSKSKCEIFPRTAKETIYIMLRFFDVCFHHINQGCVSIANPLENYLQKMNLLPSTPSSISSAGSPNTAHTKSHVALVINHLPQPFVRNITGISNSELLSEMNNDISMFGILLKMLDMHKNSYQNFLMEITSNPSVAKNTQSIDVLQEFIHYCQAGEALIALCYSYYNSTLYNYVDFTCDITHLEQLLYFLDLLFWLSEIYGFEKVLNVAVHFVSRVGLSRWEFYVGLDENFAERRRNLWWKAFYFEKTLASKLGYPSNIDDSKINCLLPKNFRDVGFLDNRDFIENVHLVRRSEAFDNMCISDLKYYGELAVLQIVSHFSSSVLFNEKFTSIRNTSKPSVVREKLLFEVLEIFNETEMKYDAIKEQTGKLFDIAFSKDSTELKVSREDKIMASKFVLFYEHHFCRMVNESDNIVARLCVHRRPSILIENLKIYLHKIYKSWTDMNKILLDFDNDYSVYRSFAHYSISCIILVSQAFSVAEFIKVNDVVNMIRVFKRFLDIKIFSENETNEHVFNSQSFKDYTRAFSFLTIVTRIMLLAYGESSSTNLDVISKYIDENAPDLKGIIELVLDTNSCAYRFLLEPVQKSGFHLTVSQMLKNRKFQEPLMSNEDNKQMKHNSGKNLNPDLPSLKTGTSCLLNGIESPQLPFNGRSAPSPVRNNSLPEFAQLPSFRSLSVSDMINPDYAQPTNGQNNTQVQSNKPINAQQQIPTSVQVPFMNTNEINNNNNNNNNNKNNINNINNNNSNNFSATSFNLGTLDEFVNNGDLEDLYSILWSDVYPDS
Method: (§2) For co-immunoprecipitation, yeast cells were transformed with Myc6-Pdr1pwt and Gal11p-Flag2 (or Gal11pAKIX-Flag2). Cells were washed with 1×PBS after overnight culture in YPD medium, and then cultured in YP for another 24 hr. Cells were then treated with different concentrations of ketoconazole and cycloheximide (or ethanol for vehicle controls) for 1 hr. Yeast cell lysates were extracted in immunoprecipitation buffer (50 mM Tris-HCI, pH 8.0, 140 mM NaCl, 0.1 mM EDTA, 10% glycerol, 0.02% NP-40, 1 mM DTT, 0.25 mM PMSF, 1 mM benzamidine, 0.5 mgml^−1 aprotinin and Protease Inhibitor Cocktail (Complete, Roche)), with or without xenobiotics by vortexing in the presence of glass beads. The Flag-tagged proteins were then immunoprecipitated by adding anti-Flag M2 antibody-beads (Sigma) and incubating for 3 hr with mutating at 4 C. After washing five times with 1 ml of 0.25 M KCl IP buffer, bound proteins were eluted with 0.1 mgml^−1 Flag peptide (Sigma). Xenobiotics at the indicated concentrations were present at all steps of the co-immunoprecipitation, including washing. Immunoblotting was performed according to standard protocols. To immunopurify Myc6-Pdr1pwt or HA-Pdr1pwt, yeast whole-cell extract (in immunoprecipitation buffer) was incubated with anti-Myc (9E10) antibody or anti-HA (F-7) antibody, and a 50% mix of Protein A- and G-Sepharose beads (Amersham) at 4° C. for 3 hr. Beads were washed with IP buffer five times, and used for drug-binding experiments as outlined herein.
Xenobiotic-binding experiments were performed essentially as described (Kapinsky & Lasar, 435 Nature 446-51 (2005)), with some modifications as explained herein. Radiolabelled ketoconazole (KET: [^3H]G), specific radioactivity 10 Ci mmol^−1, was purchased from American Radiolabelled Chemicals. Beads with either immunopurified proteins or GST recombinant proteins were incubated with KET ([^3H]G) in drug-binding buffer (10 mM K2HPO4, 10 mM KH2PO4, pH 7.0, 2 mM EDTA, 50 mM NaCl, 1 mM DTT, 0.5 mM CHAPS, 10% glycerol and protease inhibitors) at 4° C. for 3 hr with mixing in a volume of 500 μl. […]

PDR5 gene = experiment: Xenobiotic-induced transcription of Pdr1p/Pdr3p target genes by quantitative real-time RT-PCR; assay type: cell-based; settings: S. cerevisiae, Pdr1p/Pdr3p-dependent, 20 min drug treatment
Method: Yeast cultures were grown overnight with agitation in YPD at 30° C. The next day, cells were pelleted and washed twice with sterilized purified water (Millipore). Cells were then resuspended in 1% yeast extract and 2% peptone (YP) to an optical density (OD600) of 0.8, grown for another 16 hr at 30° C., then treated with different drugs for 20 min for quantitative RT-PCR, or 5 hr for β-galactosidase assay.
Total RNA was extracted from 5 ml of yeast culture using the Qiagen RNeasy MiniKit. Two micrograms of total RNA was used to generate cDNA using the First-Strand cDNA Synthesis Kit (GE Healthcare). The cDNA mix was diluted tenfold, and 2 μl was used for real-time quantitative PCR with SYBR Green (Applied Biosystems) on an ABI Prism 7900HT Sequence Detection System (Applied Biosystems).

C. glabrata = experiment: C. elegans liquid killing assay; assay type: in vivo; settings: fluconazole 8 μg/ml; for survival of nematodes infected with wild-type C. glabrata under antifungal treatment: six-day experiment
Method: The C. glabrata strains and lawns were grown and prepared as described previously. Breger, 3 PloS Pathogens, el8 (2007). The liquid medium killing assays were conducted as detailed in Breger, 2007, with a few changes. After the glp-4;sek-I worms were incubated at 25° C. for 2 days, they were washed off the nematode growth medium plates with M9 and transferred to C. glabrata lawns formed on Brain-Heart Infusion broth (Difco) agar plates. The worms were incubated on the lawns for 4 hr at 25° C., then washed off the plates with M9 buffer and allowed to crawl on unneeded Brain-Heart Infusion broth plates to remove yeast cells from their cuticles. Approximately 70-80 worms were then picked to wells in a six-well microtiter dish that contained 2 ml of liquid medium of 79% M9 buffer, 20% Brain-Heart Infusion broth, 10 μgml^−1 cholesterol in ethanol, and 90 μgml^−1 kanamycin, with the addition of 0.25% DMSO or 8 μgml^−1 fluconazole. The plates were incubated at 25° C. overnight and then examined at 24 hr intervals for survival. […] P values were calculated based on the entire six-day experiment with the log rank and Wilcoxon tests performed by STATA 6 statistical software (Stata, College Station, Tex.).

CgPdr1p = experiment: Binding of 3H-ketoconazole to immunopurified CgPdr1p; set-up: species or system C. glabrata; settings: immunopurified Myc6-CgPdr1p on beads
Method: as §2, with “Immunoblotting was performed according to standard protocols. To immunopurify Myc6-Pdr1pwt or HA-Pdr1pwt, yeast whole-cell extract (in immunoprecipitation buffer) was incubated with anti-Myc (9E10) antibody or anti-HA (F-7) antibody, and a 50% mix of Protein A- and G-Sepharose beads (Amersham) at 4° C. for 3 hr. Beads were washed with IP buffer five times, and used for drug-binding experiments as outlined herein.” left out
Xenobiotic-binding experiments were performed essentially as described (Kapinsky & Lasar, 435 Nature 446-51 (2005)), with some modifications as explained herein. Radiolabelled ketoconazole (KET: [^3H]G), specific radioactivity 10 Ci mmol^−1, was purchased from American Radiolabelled Chemicals. […]

[1] = tested on: S. cerevisiae wild-type cells; experiment: High throughput cell viability screen (OD600) with or without ketoconazole; assay type: cell-based; settings: OD600, two-fold dilutions from 30 μg/mL, with ketoconazole
Method: Briefly, S. cerevisiae or C. glabrata wild-type cells are grown to exponential growth phase and added to 384-well plates. Each well contains rich media with either (a) drug of interest or (b) drug of interest with ketoconazole. Serial 2-fold dilutions of compounds are tested to determine concentration-dependent effects upon cell viability. Cells are incubated at 30° C. and optical density (OD600) is measured to determine cell growth. Plates are set up in duplicate and compounds are scored for their ability to inhibit cell growth in the presence or absence of ketoconazole. For S. cerevisiae screening, wild-type inoculum cultures were grown in YPD (1% yeast extract, 2% bacto-peptone, 2% dextrose) at 30° C., 200 rpm overnight. On day 2, these cultures were expanded to log-phase growth in the morning (OD600˜0.500). On day 3, compounds of interest were added to 25 μL of YPD or YPD+10 μM ketoconazole at an initial concentration of 30 μg/mL and set up as 5 two-fold serial dilutions. Log-phase wild-type cultures with an OD600˜0.500 were diluted to an OD600 of 0.005 and added at an equal volume (25 μL) of wild-type cells to wells with compounds +/− ketoconazole. Initial OD600 values were read with a Perkin Elmer EnVision and plates incubated in a moist chamber at 30° C. OD600 was read at 24 hr, 48 hr, 72 hr and 96 hr. […]

Row | Structure (SMILES) | sensitivity of GAL11 deletion strain to toxin/xenobiotic (S. cerevisiae gal11Δ) | sensitivity of CgGAL11A deletion strain to drug (C. glabrata Cggal11AΔ) | competition of binding of radiolabelled ketoconazole to Pdr1p by unlabelled xenobiotic (Myc6-Pdr1p) | induction of expression of drug efflux pump PDR5 and other Pdr1p/Pdr3p target genes (PDR5 gene) | survival of nematodes infected with wild-type C. glabrata under antifungal treatment (C. glabrata) | further results
1 | O=[N+]([O-])c1cc[n+]([O-])c2ccccc12 [4-nitroquinoline oxide] | striking sensitivity |  |  |  |  | 
2 | C[C@@H]1C[C@@H]([C@H](O)CC2CC(=O)NC(=O)C2)C(=O)[C@@H](C)C1 [cycloheximide] | striking sensitivity | markedly increased sensitivity | effectively competed | induced |  | 
3 | OC(Cn1cncn1)(Cn1cncn1)c1ccc(F)cc1F [fluconazole] |  | markedly increased sensitivity |  |  | completely resistant; also recorded: death of most nematodes within six days | survival of nematodes infected with Cggal11B or Cgmed1 deletion strains in the presence of antifungal (C. glabrata; Cggal11B or Cgmed1 deletion strains): little difference in survival rates; survival of nematodes infected with Cgpdr1 and Cggal11A deletion strains in the presence of antifungal (C. glabrata): significantly increased survival; survival of nematodes infected with Cgpdr1 and Cggal11A deletion strains in the presence of antifungal (C. glabrata; listed as Fluconazole): increased the lifespan of nematodes
4 | CC(=O)N1CCN(c2ccc(OCC3COC(Cn4ccnc4)(c4ccc(Cl)cc4Cl)O3)cc2)CC1 (stereo not drawn) [ketoconazole] | striking sensitivity | markedly increased sensitivity | effectively competed | induced | completely resistant | pKd (Myc6-Pdr1p; cold ligand competition, 0.1 μM 3H-KET, Myc6-Pdr1p, read-out: dissociation constant (KD) of binding to immunopurified Pdr1p): ~4.41; direct binding of radiolabeled compound to CgPdr1p (CgPdr1p): binds directly
5 | CN(C/C=C/C#CC(C)(C)C)Cc1cccc2ccccc12 [terbinafine] |  |  |  |  |  | growth inhibition in the presence of ketoconazole [1]: eliminate cell growth
